Among the data in patent publication US9072734B2, “Quaternary ammonium salt compounds” (Teijin Pharma Limited, priority 2009, dated 2015) are inhibition in vivo, IC50 and EC50 values, retold here.

pEC50, pIC50: −log10 of the molar value. Where a name gives a salt, the structure may show the parent alone.

Experiment [1] concerns acetylcholine-induced bronchoconstriction in guinea pigs. The experiment is described as follows: Effects on acetylcholine-induced bronchoconstriction in guinea pigs. Type of experiment: in vivo, guinea pig. Conditions: Cavia porcellus; 24 hours after 25 μg/kg of the compounds were administered; read-out: percentage of bronchoconstriction suppression with respect to the acetylcholine stimulation. The procedure: These in vivo assays are used to evaluate the bronchoprotective effects based on the M3 muscarinic receptor antagonist activity and the β2 adrenergic receptor agonist activity of test compounds. Hartley male guinea pigs (Nippon SLC, Inc.) weighing about 400-500 g were used. The animals were anesthetized by inhalation of Fluothane (Takeda Pharmaceutical Company Limited) in a plastic box. The test compounds were dissolved in physiological saline containing DMSO, and administered through the nasal cavity into the trachea at a dose of 0.04-25 μg/kg and at a volume of 0.4 mL/kg. For control animals, solvent without a test compound was administered. In general, animals awake several minutes after completion of the administration. The animals were anesthetized with an intraperitoneal administration of 33% urethane/0.8% α-chloralose at a dose of 3 mL/kg. In order to intravenously administer acetylcholine or histamine, a catheter was inserted into the carotid artery. In order to measure artificial respiration and airway ventilation pressure, a cannula was inserted into the trachea. Artificial respiration was applied to the animals at a volume of 10 mL/kg and at a frequency of 60/minute, using a ventilator (Harvard Apparatus). The airway ventilation pressure was measured by the Konzett-Roessler method using a general respiratory function analysis system (M.I.P.S). Prior to administration of acetylcholine or histamine, the airway ventilation pressure was measured and baseline values were recorded. Then, physiological saline was administered through the carotid artery catheter at a volume of 0.4 mL/kg, and the airway ventilation pressure was measured. Bronchoconstrictor response was induced by administering acetylcholine (40 μg/kg, 0.4 mL/kg) or histamine (15 μg/kg, 0.4 mL/kg) through the carotid artery catheter one hour after the administration of the test compounds, and the airway ventilation pressure at the maximum contractile response was recorded. In addition, in order to evaluate duration of action of the test compounds, the above-mentioned dose of acetylcholine or histamine was administered, 1 hour, 6 hours, 12 hours, 18 hours, and 24 hours after the administration of test compounds, and the airway ventilation pressure was measured in the same way. The percentage of suppression by the test compounds with respect to the airway contractile response was calculated according to the following formula. (%) Percentage of the airway constriction suppression=(Airway ventilation pressure of test compound-dosed and acetylcholine- or histamine-dosed animals−Baseline value)/(Airway ventilation pressure of acetylcholine- or histamine-dosed animals−Baseline value)×100
The 50% inhibitory doses (ID50 values) of the test compounds were analyzed by a sigmoidal logistic model using XLfit4 (IDBS, Ltd.) for the percentage of the bronchoconstriction suppression at different doses of the test compounds.

In experiment [2] the target is T1, human M3 muscarinic receptor (Homo sapiens, UniProt P20309).
T1 construct: expressed in transfected cells; host or cells: CHO-K1
T1 sequence (P20309 whole entry): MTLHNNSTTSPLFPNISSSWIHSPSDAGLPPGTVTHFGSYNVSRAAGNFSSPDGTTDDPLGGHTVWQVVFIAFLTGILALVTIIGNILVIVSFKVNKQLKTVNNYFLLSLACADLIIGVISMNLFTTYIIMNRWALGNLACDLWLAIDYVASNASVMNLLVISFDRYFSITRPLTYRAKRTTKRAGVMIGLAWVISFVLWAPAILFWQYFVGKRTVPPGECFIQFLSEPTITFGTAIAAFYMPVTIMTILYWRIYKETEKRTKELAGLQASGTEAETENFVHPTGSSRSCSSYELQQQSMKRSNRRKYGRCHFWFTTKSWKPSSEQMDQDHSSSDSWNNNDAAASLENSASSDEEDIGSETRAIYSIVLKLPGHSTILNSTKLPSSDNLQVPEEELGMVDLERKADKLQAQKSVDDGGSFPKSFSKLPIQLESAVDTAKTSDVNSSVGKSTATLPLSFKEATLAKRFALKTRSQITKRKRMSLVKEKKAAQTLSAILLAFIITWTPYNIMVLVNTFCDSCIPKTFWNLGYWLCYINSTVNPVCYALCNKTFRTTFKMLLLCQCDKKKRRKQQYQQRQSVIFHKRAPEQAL
The experiment is described as follows: Inhibitory effect on methacholine-induced calcium influx, FLIPR assay, CHO-K1 cells stably expressing the human M3 muscarinic receptor. Particulars: inhibition of calcium influx induced by methacholine. In kind it is cell-based. The gist of the method: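 Dye-loaded hM3 CHO-K1 cells were preincubated 180 s with compound solutions prepared at 10 two-fold concentrations (0.01–1000 nM). A 30 nM methacholine solution was then added. Fluorescence was traced for 170 s; max−min signal gave % inhibition against agonist and no-agonist controls, and IC50 came from a four-parameter logistic fit.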

The target of experiment [3] is T2, human β2 adrenergic receptor (Homo sapiens, UniProt P07550).
T2 construct: expressed in transfected cells; host or cells: CHO-K1
T2 sequence (P07550 whole entry): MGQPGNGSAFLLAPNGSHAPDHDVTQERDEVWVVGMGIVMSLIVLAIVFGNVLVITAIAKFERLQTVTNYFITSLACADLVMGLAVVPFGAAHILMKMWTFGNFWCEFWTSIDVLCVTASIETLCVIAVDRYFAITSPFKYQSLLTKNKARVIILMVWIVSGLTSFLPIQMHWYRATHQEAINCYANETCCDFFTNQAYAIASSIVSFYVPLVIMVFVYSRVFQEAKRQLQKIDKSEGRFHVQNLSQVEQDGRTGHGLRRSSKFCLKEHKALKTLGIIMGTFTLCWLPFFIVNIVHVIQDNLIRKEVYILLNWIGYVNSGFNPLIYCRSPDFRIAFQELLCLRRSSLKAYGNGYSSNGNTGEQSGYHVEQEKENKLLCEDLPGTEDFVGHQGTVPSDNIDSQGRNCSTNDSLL
The experiment is described as follows: Whole-cell cAMP Flashplate assay using CHO-K1 cells stably expressing human β2 adrenergic receptor. In kind it is cell-based. Conditions: cAMP production.

With `COc1cc(NC(=O)CCCc2ccc(-c3ccccc3)c(NC(=O)OC3CC[N+](C)(C)CC3)c2)ccc1CNC[C@H](O)c1ccc(O)c2[nH]c(=O)ccc12` [Example 20, 4-({[5-(3-{[4-({[(2R)-2-hydroxy-2-(8-hydroxy-2-oxo-1,2-dihydroquinolin-5-yl)ethyl]amino}methyl)-3-methoxyphenyl]carbamoyl}propyl)-2-phenylphenyl]carbamoyl}oxy)-1,1-dimethylpiperidin-1-ium trifluoroacetate], the inhibition in vivo at 0.025 mg/kg in experiment [1] was no less than 50%. Moreover, the pIC50 in experiment [2] was 7.77. Also, in experiment [3], the pEC50 is 8.59.
On the same counts, the results for `COc1cc(NC(=O)CCCc2ccc(-c3ccccc3)c(NC(=O)OC3CC[N+](C)(C)CC3)c2)c(Cl)cc1CNC[C@H](O)c1ccc(O)c2[nH]c(=O)ccc12` [Example 18, 4-({[5-(3-{[2-chloro-4-({[(2R)-2-hydroxy-2-(8-hydroxy-2-oxo-1,2-dihydroquinolin-5-yl)ethyl]amino}methyl)-5-methoxyphenyl]carbamoyl}propyl)-2-phenylphenyl]carbamoyl}oxy)-1,1-dimethylpiperidin-1-ium trifluoroacetate] are no less than 50%, 8.05 and 9.22.
Regarding `C[N+]1(C)CCC(OC(=O)Nc2cc(CCCC(=O)Nc3ccc(CNC[C@H](O)c4ccc(O)c5[nH]c(=O)ccc45)cc3Cl)ccc2-c2ccccc2)CC1` [Example 19, 4-({[5-(3-{[2-chloro-4-({[(2R)-2-hydroxy-2-(8-hydroxy-2-oxo-1,2-dihydroquinolin-5-yl)ethyl]amino}methyl)phenyl]carbamoyl}propyl)-2-phenylphenyl]carbamoyl}oxy)-1,1-dimethylpiperidin-1-ium trifluoroacetate], the inhibition in vivo at 0.025 mg/kg in experiment [1] was no less than 50%. Further, the negative-log IC50 (pIC50) in experiment [2] was 8.06. Moreover, the pEC50 in experiment [3] is 8.92.
On the same counts, the results for `COc1cc(NC(=O)CCc2ccc(-c3ccccc3)c(NC(=O)OC3CC[N+](C)(C)CC3)c2)ccc1CNC[C@H](O)c1ccc(O)c2[nH]c(=O)ccc12` [Example 6, 4-({[5-(2-{[4-({[(2R)-2-hydroxy-2-(8-hydroxy-2-oxo-1,2-dihydroquinolin-5-yl)ethyl]amino}methyl)-3-methoxyphenyl]carbamoyl}ethyl)-2-phenylphenyl]carbamoyl}oxy)-1,1-dimethylpiperidin-1-ium trifluoroacetate] are no less than 50%, 8.05 and 8.77.
For `C[N+]1(C)CCC(OC(=O)Nc2cc(CCCOc3ccc(CCNC[C@H](O)c4ccc(O)c5[nH]c(=O)ccc45)cc3)ccc2-c2ccccc2)CC1` [Example 77, 4-{[(5-{3-[4-(2-{[(2R)-2-hydroxy-2-(8-hydroxy-2-oxo-1,2-dihydroquinolin-5-yl)ethyl]amino}ethyl)phenoxy]propyl}-2-phenylphenyl)carbamoyl]oxy}-1,1-dimethylpiperidin-1-ium trifluoroacetate] the same measures were no less than 50%, 7.44 and 8.82.
On the same counts, the results for `COc1cc(NC(=O)CCCc2ccc(-c3ccccc3)c(NC(=O)OC3CC[N+](C)(C)CC3)c2)c(Br)cc1CNC[C@H](O)c1ccc(O)c2[nH]c(=O)ccc12` [Example 25, 4-({[5-(3-{[2-bromo-4-({[(2R)-2-hydroxy-2-(8-hydroxy-2-oxo-1,2-dihydroquinolin-5-yl)ethyl]amino}methyl)-5-methoxyphenyl]carbamoyl}propyl)-2-phenylphenyl]carbamoyl}oxy)-1,1-dimethylpiperidin-1-ium trifluoroacetate] are no less than 50%, 7.72 and 9.40.
Consider `COc1cc(NC(=O)CCc2ccc(-c3ccccc3)c(NC(=O)OC3CC[N+](C)(C)CC3)c2)c(Cl)cc1CNC[C@H](O)c1ccc(O)c2[nH]c(=O)ccc12` [Example 2, 4-({[5-(2-{[2-chloro-4-({[(2R)-2-hydroxy-2-(8-hydroxy-2-oxo-1,2-dihydroquinolin-5-yl)ethyl]amino}methyl)-5-methoxyphenyl]carbamoyl}ethyl)-2-phenylphenyl]carbamoyl}oxy)-1,1-dimethylpiperidin-1-ium trifluoroacetate], for which, in experiment [1], the inhibition in vivo at 0.025 mg/kg is no less than 50%. The pIC50 in experiment [2] is 7.71. Moreover, the negative-log EC50 (pEC50) in experiment [3] was 8.96.
For `C[N+]1(C)CCC(OC(=O)Nc2cc(CCC(=O)Nc3ccc4cc(CNC[C@H](O)c5ccc(O)c6[nH]c(=O)ccc56)ccc4c3)ccc2-c2ccccc2)CC1` [Example 12, 4-({[5-(2-{[6-({[(2R)-2-hydroxy-2-(8-hydroxy-2-oxo-1,2-dihydroquinolin-5-yl)ethyl]amino}methyl)naphthalen-2-yl]carbamoyl}ethyl)-2-phenylphenyl]carbamoyl}oxy)-1,1-dimethylpiperidin-1-ium trifluoroacetate] the same measures were no less than 50%, 7.58 and 8.34.
